{"source": "patent US7598067B2", "about": "“PDEs and uses thereof” (priority 2000, dated 2009)", "key": {"human PDE8A [1]": {"molecular_target": "T1, human PDE8A (Homo sapiens, UniProt O60658)", "assay": "Activity of sf9 expressed PDE8A, undigested or trypsin digested", "assay_type": "biochemical", "design": "human PDE8A was expressed in Sf9 cells (ATCC, Manassas, Va.); This PDE8A was already N-terminally truncated at position 285; fused on or other part: N-terminal FLAG tag ([…]...) on the undigested construct", "conditions": "trypsin digested PDE8A; at 1 μM IBMX", "method": "(§1) Briefly, human PDE8A was expressed in Sf9 cells (ATCC, Manassas, Va.). […] The supernatant (10^6 cells/digestion) was isolated and digested with the indicated amounts of trypsin at the indicated times at 30° C. The digestion was stopped with a 100-fold excess of soybean trypsin inhibitor. The activity was assayed with 1 μM cAMP. […] The digested PDE8A was analyzed by Western blot analysis using a peptide antibody specific to the C-terminus (PIL13) or the P4G7 monoclonal antibody."}, "PDE8A [2]": {"tested_on": "PDE8A", "assay": "Activity of immunoprecipitated PDE8A from Hut78 or CD4+ cells", "assay_type": "biochemical, human", "method": "Hut78 or CD4^+ cells were harvested at various points after stimulation with CD3 and CD28 antibodies. Cells were resuspended in IP buffer (20 mM Tris pH7.5, 100 mM NaCl, 1 mM benzamidine, 1 μg/mL leupeptin, 1 μg/mL pepstatin, 50 mM NaF, 2 mM EDTA) and sonicated. The cells were centrifuged at 15000×g for 10 minutes. The supernatant was precleared for 2 hours with 0.5 μg mouse IgG and 10 μL protein-G agarose (Santa Cruz Biotechnology, Santa Cruz, Calif.). PDE8A monoclonal antibody was preloaded onto 10 μL protein G-agarose and added to the precleared supernatant. The immunoprecipitations were agitated overnight at 4° C. and the beads washed three times with IP buffer containing 1M NaCl followed by one wash with IP buffer."}, "[3]": {"tested_on": "PDE8A and PDE7A from hut78 cells", "assay": "PDE activity of monoQ HPLC fractions of hut78 cells, low Km peak", "assay_type": "biochemical, human", "conditions": "0.01 μM cAMP; 10 μM rolipram or 100 μM IBMX", "method": "(§2) Since pure CD4^+ T cells can only be obtained in limited quantities, a human CD4^+ T cell line, hut78, (ATCC, Manassas, Va.), was used to study the activity of PDE8A. Hut78 cells (2×10^8) were resuspended in 20 mM Tris pH 7.5 buffer containing protease inhibitors (Boehringer Mannheim, Indianapolis, Ind.) and sonicated. The supernatant was removed after centrifugation at 15000×g for 10 minutes and applied to a Mono Q column attached to a Rainin Dynamax HPLC system (Ameryville, Calif.). A NaCl gradient (0-0.8M) was passed through the column and 250 uL fractions were collected. The fractions were assayed for activity using either 1 μM or 0.01 μM cAMP as substrate and the indicated concentration of inhibitor (FIG. 5). Western blot analysis was also performed (10 μL/well) using PDE7A or 8A antibodies."}, "human PDE8A [4]": {"molecular_target": "T1, human PDE8A", "assay": "Activity of sf9 expressed PDE8A, undigested or trypsin digested", "assay_type": "biochemical", "design": "made in house; host or cells: Sf9 insect cells (supernatant of cell extract)", "conditions": "undigested PDE8A", "method": "as §1"}, "TbPDE2B": {"molecular_target": "TbPDE2B (Trypanosoma brucei, UniProt Q9GQU6)", "sequence (Q9GQU6 entry or part of it)": "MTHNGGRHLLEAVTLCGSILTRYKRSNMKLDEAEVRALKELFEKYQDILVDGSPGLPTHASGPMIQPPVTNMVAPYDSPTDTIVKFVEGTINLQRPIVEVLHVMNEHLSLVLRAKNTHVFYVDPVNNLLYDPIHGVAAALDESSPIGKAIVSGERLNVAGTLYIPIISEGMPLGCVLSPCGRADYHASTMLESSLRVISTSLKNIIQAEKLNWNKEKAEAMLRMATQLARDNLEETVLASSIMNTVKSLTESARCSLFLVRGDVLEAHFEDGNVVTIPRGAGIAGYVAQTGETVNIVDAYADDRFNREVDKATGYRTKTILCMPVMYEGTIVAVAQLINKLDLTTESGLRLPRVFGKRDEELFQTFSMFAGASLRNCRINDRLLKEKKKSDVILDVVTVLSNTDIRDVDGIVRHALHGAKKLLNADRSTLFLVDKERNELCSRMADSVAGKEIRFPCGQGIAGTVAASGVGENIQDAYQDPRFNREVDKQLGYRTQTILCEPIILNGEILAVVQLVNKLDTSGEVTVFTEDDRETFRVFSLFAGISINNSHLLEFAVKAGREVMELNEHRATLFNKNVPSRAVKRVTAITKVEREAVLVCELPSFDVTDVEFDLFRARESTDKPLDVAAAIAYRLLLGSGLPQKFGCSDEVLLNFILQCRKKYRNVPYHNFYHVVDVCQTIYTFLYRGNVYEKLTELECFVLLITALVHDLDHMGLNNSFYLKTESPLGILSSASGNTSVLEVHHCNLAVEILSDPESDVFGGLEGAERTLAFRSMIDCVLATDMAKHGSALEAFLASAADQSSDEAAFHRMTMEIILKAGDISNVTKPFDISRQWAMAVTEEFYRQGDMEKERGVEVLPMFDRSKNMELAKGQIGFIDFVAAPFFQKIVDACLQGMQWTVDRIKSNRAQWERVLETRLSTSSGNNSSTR", "assay": "Phosphodiesterase assay, recombinant TbPDE2B expressed in HEK 293 cells", "assay_type": "biochemical", "conditions": "for inhibition of recombinant TbPDE2B, in words: 1 μM [3H] cAMP, cGMP up to 200 μM", "method": "Expression of T. brucei PDE. The ORF sequence for T. brucei PDE was subcloned into the pcDNA 3.1-TOPO vector (Invitrogen) according to the manual (Eukaryotic TOPO TA Cloning, version C) and plasmid DNA purified as described above. Human embryonic kidney 293 (HEK 293) cells were transfected with 12 μg of DNA in 60 μl of GenePORTER Transfection Reagent (Gene Therapy Systems, San Diego, Calif.) in 100-mm dishes and kept at 37° C. in 5% CO2 for 24 h. After this period fresh medium was added, and incubated under the same conditions for an additional 24 h. The same amount of pcDNA vector containing the sequence for the Green Fluorescent Protein (GFP) was transfected under identical conditions as a positive control for expression and as a negative control for PDE activity. Two plates were harvested at a time and homogenized with 1 ml of homogenization buffer containing 40 mM Tris-HCl, pH 7.5; 15 mM benzamidine; 15 mM 2-mercaptoethanol; 1 μg/ml pepstatin A; 1 μg/ml leupeptin and 5 mM EDTA. The cell suspension was immediately subjected to sonication (3×5 s) on ice. One volume of glycerol and 1 mg/ml of bovine serum albumin were added immediately to the homogenate.\nPhosphodiesterase assay. […]"}, "PDE8A [5]": {"tested_on": "PDE8A", "assay": "PDE activity of monoQ HPLC fractions of hut78 cells containing only PDE8A", "assay_type": "biochemical, human", "conditions": "0.01 μM cAMP", "method": "as §2"}, "PDE8A [6]": {"tested_on": "PDE8A", "conditions": "Fisher et al. 1998; cited from earlier work"}, "PDEs (Non-selective)": {"tested_on": "PDEs (Non-selective)", "conditions": "read-out: PDE Selectivity (IC50); cited from earlier work"}, "TbPDE2A [7]": {"molecular_target": "T2, TbPDE2A (Trypanosoma brucei, UniProt Q9GTN9)", "T2 sequence (Q9GTN9 entry or part of it)": "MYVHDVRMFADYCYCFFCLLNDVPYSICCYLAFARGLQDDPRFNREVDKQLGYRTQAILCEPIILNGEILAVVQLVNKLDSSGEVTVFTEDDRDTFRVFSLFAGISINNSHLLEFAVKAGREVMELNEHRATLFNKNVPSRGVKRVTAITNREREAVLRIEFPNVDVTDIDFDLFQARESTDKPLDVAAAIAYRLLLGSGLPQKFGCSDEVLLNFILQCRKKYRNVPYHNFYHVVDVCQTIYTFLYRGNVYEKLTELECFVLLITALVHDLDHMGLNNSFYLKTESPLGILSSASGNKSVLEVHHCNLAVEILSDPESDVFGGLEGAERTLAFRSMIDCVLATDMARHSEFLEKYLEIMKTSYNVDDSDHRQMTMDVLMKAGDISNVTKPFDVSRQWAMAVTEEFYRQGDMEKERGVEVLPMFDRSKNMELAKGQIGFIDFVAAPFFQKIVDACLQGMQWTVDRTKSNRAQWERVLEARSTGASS", "assay": "Phosphodiesterase assay, recombinant TbPDE2A in yeast lysates", "assay_type": "biochemical", "method": "Yeast cell lysis. Yeast cells grown to mid- to end-log phase in SC-leu medium were collected, resuspended quickly in an original volume of prewarmed YPD medium and incubated for an additional 3 h at 30° C. in order to maximize protein expression. Cells were then harvested, washed once in water and once in HBBB buffer (Hank's balanced salt solution, containing 50 mM HEPES, pH 7.5). The washed cell pellet was suspended in an equal volume of HBB containing a protease inhibitor cocktail (Complete™, Roche Molecular Biochemicals). […] The cell lysate was clarified by centrifugation for 15 min at 15,000×g.\nPhosphodiesterase Assay. […] […] Incubation was at 30° C. for 20 min. […] The precipitates were filtered through GF-C glass fiber fitters and filters were washed 3 times with ice-cold 1 mM NaOH/100 mM NaCl and were then dried and counted in liquid scintillation fluid (4 g/I omnifluor in toluene). All assays were carried out in triplicates and with three independent enzyme preparations. Controls for the efficiency of precipitation of cAMP and of AMP were always included. When assaying yeast cell extracts, control lysates from the PDE deletion strains transfected with empty vector was used as a background control. […] Inhibitors were dissolved in DMSO or ethanol, and the final concentration of the solvent never exceeded 1% in the assays reaction. Incubation times and enzyme concentrations were always adjusted so that less than 30% of the input substrate was hydrolyzed (2-5 μg total protein/100 μl assay). IC50 values were calculated by curve fitting on a four parameter dose-response model with variable slope, using the Prism software package of Graph Pad Inc., San Diego, Calif."}, "PDE 10": {"tested_on": "PDE 10", "conditions": "read-out: PDE Selectivity (IC50); cited from earlier work"}, "PDE 6": {"tested_on": "PDE 6", "conditions": "read-out: PDE Selectivity (IC50); cited from earlier work"}, "PDE 8": {"tested_on": "PDE 8", "conditions": "read-out: PDE Selectivity (IC50); cited from earlier work"}, "[8]": {"tested_on": "total PDE activity of trypanosomal cell extracts", "assay": "Total PDE activity in trypanosomal cell extracts", "assay_type": "biochemical, Trypanosoma brucei", "description": "Chemical validation of the TbPDE2 family as a potential drug target. One of the novel PDEs of the invention, TbPDE2A, was expressed as a recombinant protein and was characterized in detail (see above). […]."}, "PDE 3": {"tested_on": "PDE 3", "conditions": "read-out: PDE Selectivity (IC50); cited from earlier work"}, "TbPDE2A [9]": {"molecular_target": "T2, TbPDE2A", "conditions": "Table 2, from reference; cited from earlier work"}, "TbPDE2C": {"tested_on": "TbPDE2C", "assay": "Recombinant TbPDE2C expressed in S. cerevisiae", "assay_type": "biochemical, Trypanosoma brucei", "description": "We also have expressed a second family member, TbPDE2C, as a recombinant protein in the yeast S. cerevisiae and have characterized it was previously done for TbPDE2A."}, "[10]": {"conditions": "full-size TbPDE2A, yeast lysates, 1 μM cAMP"}}, "note": "Values joined by “and” are separate entries in the source; they are usually repeats but may differ in a detail not shown here. Identical values can stand only once. Like-named read-outs stand apart in the source and are kept apart here.", "data": [{"smiles": "CC(C)Cn1c(=O)n(C)c(=O)c2[nH]cnc21", "note": "[IBMX, 3-Isobutyl-1-methylxanthine]", "values": [{"measurement": "activity retained", "setting": "human PDE8A [1]", "result": 40, "unit": "%"}, {"measurement": "immunoprecipitated PDE8A activity from hut78 cells", "setting": "PDE8A [2]; 100 μM IBMX, FIG. 6A", "result": "inhibited"}, {"measurement": "increase in immunoprecipitated PDE8A activity after activation", "setting": "PDE8A [2]; CD4+ T cells", "result": "could be inhibited"}, {"measurement": "sensitivity of the PDE activity peak", "setting": "[3]", "result": "sensitive"}, {"measurement": "IBMX inhibition of undigested PDE8A", "setting": "human PDE8A [4]", "result": "resistant"}, {"measurement": "activity of undigested PDE8A", "setting": "human PDE8A [4]; at 1 μM IBMX", "result": "unchanged"}, {"measurement": "IC50", "setting": "TbPDE2B", "result": "> 1000", "unit": "µM"}, {"measurement": "inhibition of recombinant TbPDE2B, in words", "setting": "TbPDE2B", "result": "extremely low sensitivity"}, {"measurement": "activity of fractions that contained only PDE8A", "setting": "PDE8A [5]", "result": "inhibited"}, {"measurement": "sensitivity of recombinant expressed PDE8A", "setting": "PDE8A [6]", "result": "resistant"}, {"measurement": "IC50", "setting": "PDEs (Non-selective)", "result": "2 to 50", "unit": "µM"}, {"measurement": "effectiveness on TbPDE2A, in words", "setting": "TbPDE2A [7]", "result": "not effective"}, {"measurement": "effect on TbPDE2A activity in initial screening", "setting": "TbPDE2A [7]; 100 μM inhibitor, 1 μM cAMP, FIG. 26", "result": "ineffective"}, {"measurement": "IC50", "setting": "TbPDE2A [7]; [10]", "result": 545, "unit": "µM"}]}, {"smiles": "OCCN(CCO)c1nc(N2CCCCC2)c2nc(N(CCO)CCO)nc(N3CCCCC3)c2n1", "note": "[Dipyridamole, dipyridamole]", "values": [{"measurement": "IC50", "setting": "PDE 10", "result": 1.1, "unit": "µM"}, {"measurement": "IC50", "setting": "PDE 6", "result": 0.38, "unit": "µM"}, {"measurement": "IC50", "setting": "TbPDE2B", "result": 27, "unit": "µM"}, {"measurement": "IC50", "setting": "PDE 8", "result": 4.5, "unit": "µM"}, {"measurement": "IC50", "setting": "TbPDE2A [7]; [10]", "result": "5.8 µM and 5.9 µM"}, {"measurement": "IC50 for TbPDE2A (μM)", "setting": "TbPDE2A [7]; [10]", "result": "low micromolar range"}, {"measurement": "total PDE activity", "setting": "[8]", "result": "marked, if not complete, reduction"}]}, {"smiles": "CSc1ccc(C(=O)c2[nH]c(=O)[nH]c2C)cc1", "note": "[Enoximone, enoximone]", "values": [{"measurement": "IC50", "setting": "PDE 3", "result": 1, "unit": "µM"}, {"measurement": "IC50", "setting": "TbPDE2B", "result": "> 100", "unit": "µM"}, {"measurement": "inhibition of recombinant TbPDE2B, in words", "setting": "TbPDE2B", "result": "No IC50 could be obtained"}]}, {"smiles": "Nc1nc2c(ncn2[C@@H]2O[C@@H]3COP(=O)(O)O[C@H]3[C@H]2O)c(=O)[nH]1", "note": "[cGMP]", "values": [{"measurement": "IC50", "setting": "TbPDE2A [9]", "result": "> 100", "unit": "µM"}, {"measurement": "inhibition of recombinant TbPDE2B, in words", "setting": "TbPDE2B", "result": "not stimulated or inhibited"}, {"measurement": "IC50", "setting": "TbPDE2B; Substrate concentration 1 μM [3H]-cAMP, read-out: TbPDE2B IC50 (μM) (n = 3)", "result": "> 200", "unit": "µM"}, {"measurement": "effect on activity of TbPDE2C", "setting": "TbPDE2C", "result": "does not affect the activity"}, {"measurement": "cAMP hydrolysis by TbPDE2A in the presence of cGMP", "setting": "TbPDE2A [7]; 100-fold excess of cGMP, full-size and truncated constructs", "result": "unaffected"}]}]}
